Like-named read-outs stand apart in the source and are kept apart here. Blank lines part the entries; values can stand above or below the compound they belong to.
Columns and labels:
Type in all cases: biochemical
CDK6/CCND1 = CDK6/CCND1 (Homo sapiens, UniProt Q00534); experiment: CDK6 homogeneous time-resolved fluorescence (HTRF) kinase assay; conditions: CDK6/CCND, 1 mM ATP
Method in brief: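 Enzyme pre-incubated 20 min at 23 °C with compound, then reacted 60 min at 23 °C with 1 mM ATP and 50 nM ULight-4E-BP1 (Thr37/46) peptide; 1 nM enzyme, 1% DMSO. EDTA-stopped, Eu-anti-phospho antibody TR-FRET read (665 nm or 665/615 ratio); 11-point half-log titration from 10 μM gave IC50.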

CDK2/CCNE1 = CDK2/CCNE1 (Homo sapiens, UniProt P24941); experiment: CDK2 homogeneous time-resolved fluorescence (HTRF) kinase assay; conditions: CDK2/CCNE
Method in brief: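 CDK2/CCNE1 (3 nM) preincubated 20 min at 23 °C with compound, then reacted 60 min at 23 °C with 1 mM ATP and 50 nM ULight-4E-BP1 (Thr37/46) peptide. Stopped with EDTA, phospho-peptide detected by Eu-anti-phospho antibody (665 nm or 665/615 ratio). IC50 from 11-point half-log titrations typically starting at 10 μM.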

CDK4/CCND3 = CDK4/CCND3 (Homo sapiens, UniProt P11802); experiment: CDK4 homogeneous time-resolved fluorescence (HTRF) kinase assay; conditions: CDK4/CCND
Method in brief: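 CDK4/CCND3 at 1.5 nM was preincubated with compound for 20 min at 23 °C, then reacted for 60 min with 1 mM ATP and 50 nM ULight-4E-BP1 (Thr37/46) peptide. The reaction was stopped with EDTA, and phosphorylation was read by HTRF with a Eu-anti-phospho antibody. IC50 values came from 11-point half-log titrations, typically from 10 μM.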

CDK1/CCNB1 = CDK1/CCNB1 (Homo sapiens, UniProt P06493); experiment: CDK1 homogeneous time-resolved fluorescence (HTRF) kinase assay; conditions: CDK1/CCNB
Method in brief: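 0.5 nM CDK1/CCNB1 was preincubated 20 min at 23 °C with compound in HEPES pH-unspecified buffer (MgCl2, EGTA, DTT, Tween 20), then reacted 60 min with 1 mM ATP and 50 nM ULight-4E-BP1 (Thr37/46) peptide. EDTA-stopped reactions were detected with 2 nM Eu-anti-phospho antibody; IC50 from 11-point half-log titrations.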

[1] = >250 nM, read-out: CDK6/CCND IC50, >250 nM
[2] = 25-250 nM, read-out: CDK2/CCNE IC50, 25-250 nM
[3] = >250 nM, read-out: CDK4/CCND IC50, >250 nM
[4] = >250 nM, read-out: CDK1/CCNB IC50 >250 nM
[5] = 25-250 nM, read-out: CDK6/CCND IC50, 25-250 nM
[6] = <25 nM, read-out: CDK2/CCNE IC50, <25 nM
[7] = 25-250 nM, read-out: CDK4/CCND IC50, 25-250 nM
[8] = 25-250 nM, read-out: CDK1/CCNB IC50, 25-250 nM

Chain of CDK1/CCNB1 (P06493 whole entry): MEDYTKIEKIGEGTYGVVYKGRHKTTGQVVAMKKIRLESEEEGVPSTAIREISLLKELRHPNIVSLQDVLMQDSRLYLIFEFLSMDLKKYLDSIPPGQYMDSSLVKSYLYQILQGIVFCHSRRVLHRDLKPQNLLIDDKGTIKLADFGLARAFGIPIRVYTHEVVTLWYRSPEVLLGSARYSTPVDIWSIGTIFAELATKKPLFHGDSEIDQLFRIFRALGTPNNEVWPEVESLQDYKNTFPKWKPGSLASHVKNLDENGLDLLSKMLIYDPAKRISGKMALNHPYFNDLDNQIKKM
Chain of CDK1/CCNB1 (P14635 whole entry partner): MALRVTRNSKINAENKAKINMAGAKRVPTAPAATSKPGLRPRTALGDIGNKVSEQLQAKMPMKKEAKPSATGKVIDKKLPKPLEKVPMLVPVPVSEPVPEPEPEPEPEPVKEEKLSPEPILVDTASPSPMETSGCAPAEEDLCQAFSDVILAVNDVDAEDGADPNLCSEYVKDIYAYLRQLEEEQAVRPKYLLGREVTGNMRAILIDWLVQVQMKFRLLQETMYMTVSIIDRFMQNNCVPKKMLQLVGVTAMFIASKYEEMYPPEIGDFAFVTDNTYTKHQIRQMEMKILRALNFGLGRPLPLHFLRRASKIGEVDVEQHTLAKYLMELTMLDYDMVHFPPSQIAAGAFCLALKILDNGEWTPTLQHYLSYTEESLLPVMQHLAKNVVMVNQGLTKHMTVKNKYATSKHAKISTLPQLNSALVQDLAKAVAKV
Chain of CDK6/CCND1 (Q00534 whole entry): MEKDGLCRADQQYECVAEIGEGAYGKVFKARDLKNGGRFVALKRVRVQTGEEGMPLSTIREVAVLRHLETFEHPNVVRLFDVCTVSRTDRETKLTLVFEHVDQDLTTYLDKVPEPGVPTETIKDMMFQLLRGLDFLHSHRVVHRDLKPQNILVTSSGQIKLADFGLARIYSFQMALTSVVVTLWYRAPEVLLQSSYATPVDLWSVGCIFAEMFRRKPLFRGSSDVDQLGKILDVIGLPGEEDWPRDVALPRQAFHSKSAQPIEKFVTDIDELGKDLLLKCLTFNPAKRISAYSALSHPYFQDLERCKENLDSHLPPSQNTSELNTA
Chain of CDK6/CCND1 (P24385 whole entry partner): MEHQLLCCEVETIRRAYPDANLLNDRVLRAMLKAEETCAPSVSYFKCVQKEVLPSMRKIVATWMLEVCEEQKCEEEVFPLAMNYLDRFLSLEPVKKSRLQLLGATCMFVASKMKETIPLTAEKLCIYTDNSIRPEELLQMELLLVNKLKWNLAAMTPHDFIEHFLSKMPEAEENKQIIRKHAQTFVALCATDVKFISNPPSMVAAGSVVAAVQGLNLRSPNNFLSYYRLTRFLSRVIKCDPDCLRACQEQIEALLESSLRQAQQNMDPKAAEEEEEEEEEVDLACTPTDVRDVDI
Chain of CDK4/CCND3 (P11802 whole entry): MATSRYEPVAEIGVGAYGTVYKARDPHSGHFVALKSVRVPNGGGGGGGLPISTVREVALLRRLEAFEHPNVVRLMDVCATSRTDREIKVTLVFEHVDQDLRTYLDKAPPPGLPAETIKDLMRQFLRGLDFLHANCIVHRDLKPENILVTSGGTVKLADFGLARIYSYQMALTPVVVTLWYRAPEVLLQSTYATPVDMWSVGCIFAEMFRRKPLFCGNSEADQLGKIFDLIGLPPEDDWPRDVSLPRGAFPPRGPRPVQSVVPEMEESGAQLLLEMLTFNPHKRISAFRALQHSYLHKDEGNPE
Chain of CDK4/CCND3 (P30281 whole entry partner): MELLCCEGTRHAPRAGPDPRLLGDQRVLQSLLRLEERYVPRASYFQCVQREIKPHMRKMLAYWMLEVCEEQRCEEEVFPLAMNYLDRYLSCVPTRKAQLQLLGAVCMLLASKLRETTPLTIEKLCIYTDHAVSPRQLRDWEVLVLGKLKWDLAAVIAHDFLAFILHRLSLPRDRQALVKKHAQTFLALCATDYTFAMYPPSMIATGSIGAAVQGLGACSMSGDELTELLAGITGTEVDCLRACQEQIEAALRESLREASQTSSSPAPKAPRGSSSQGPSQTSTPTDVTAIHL

IC50 (CDK6/CCND1; [1]): > 250 nM
IC50 (CDK2/CCNE1; [2]): 25 to 250 nM
IC50 (CDK4/CCND3; [3]): > 250 nM
IC50 (CDK1/CCNB1; [4]): > 250 nM
SMILES: Cc1c(-c2nccc3cnc(Nc4ccc(S(C)(=O)=O)c(N5CCN(CCO)CC5)c4)cc23)ccc2c1cnn2CC(C)(C)O [Ex 919, 1-(5-(7-((3-(4-(2-hydroxyethyl)piperazin-1-yl)-4-(methylsulfonyl)phenyl)amino)-2,6-naphthyridin-1-yl)-4-methyl-1H-indazol-1-yl)-2-methylpropan-2-ol]

IC50 (CDK6/CCND1; [5]): 25 to 250 nM
IC50 (CDK2/CCNE1; [6]): < 25 nM
IC50 (CDK4/CCND3; [7]): 25 to 250 nM
IC50 (CDK1/CCNB1; [8]): 25 to 250 nM
SMILES: Cc1c(-c2nccc3cnc(Nc4ccc(S(N)(=O)=O)cc4)cc23)ccc2c1cnn2CC(C)(C)O [Ex 921, 4-((5-(1-(2-hydroxy-2-methylpropyl)-4-methyl-1H-indazol-5-yl)-2,6-naphthyridin-3-yl)amino)benzenesulfonamide]

IC50 (CDK6/CCND1; [5]): 25 to 250 nM
IC50 (CDK2/CCNE1; [6]): < 25 nM
IC50 (CDK4/CCND3; [7]): 25 to 250 nM
IC50 (CDK1/CCNB1; [4]): > 250 nM
SMILES: Cc1c(-c2nccc3cnc(Nc4ccc(S(=O)(=O)N5CCOCC5)cc4)cc23)ccc2c1cnn2CC(C)(C)O [Ex 922, 2-methyl-1-(4-methyl-5-(7-((4-(morpholinosulfonyl)phenyl)amino)-2,6-naphthyridin-1-yl)-1H-indazol-1-yl)propan-2-ol]

IC50 (CDK6/CCND1; [1]): > 250 nM
IC50 (CDK2/CCNE1; [2]): 25 to 250 nM
IC50 (CDK4/CCND3; [3]): > 250 nM
IC50 (CDK1/CCNB1; [4]): > 250 nM
SMILES: Cc1c(-c2nccc3cnc(Nc4ccc(S(=O)(=O)O)cc4)cc23)ccc2c1cnn2CC(C)(C)O [Ex 925, 4-((5-(1-(2-hydroxy-2-methylpropyl)-4-methyl-1H-indazol-5-yl)-2,6-naphthyridin-3-yl)amino)benzenesulfonic acid]

IC50 (CDK6/CCND1; [1]): > 250 nM
IC50 (CDK2/CCNE1; [6]): < 25 nM
IC50 (CDK4/CCND3; [3]): > 250 nM
IC50 (CDK1/CCNB1; [4]): > 250 nM
SMILES: Cc1c(-c2nccc3cnc(Nc4ccc(S(=O)(=O)Nc5ncccn5)cc4)cc23)ccc2c1cnn2CC(C)(C)O [Ex 927, 4-((5-(1-(2-hydroxy-2-methylpropyl)-4-methyl-1H-indazol-5-yl)-2,6-naphthyridin-3-yl)amino)-N-(pyrimidin-2-yl)benzenesulfonamide]

IC50 (CDK6/CCND1; [1]): > 250 nM
IC50 (CDK2/CCNE1; [2]): 25 to 250 nM
IC50 (CDK4/CCND3; [3]): > 250 nM
IC50 (CDK1/CCNB1; [4]): > 250 nM
SMILES: Cc1c(-c2nccc3cnc(Nc4cccc(C(=O)Nc5ccccc5)c4)cc23)ccc2c1cnn2CC(C)(C)O [Ex 929, 3-((5-(1-(2-hydroxy-2-methylpropyl)-4-methyl-1H-indazol-5-yl)-2,6-naphthyridin-3-yl)amino)-N-phenylbenzamide]

IC50 (CDK6/CCND1; [1]): > 250 nM
IC50 (CDK2/CCNE1; [2]): 25 to 250 nM
IC50 (CDK4/CCND3; [3]): > 250 nM
IC50 (CDK1/CCNB1; [4]): > 250 nM
SMILES: N#Cc1ccc(C#Cc2nccc3cnc(Nc4ccc(S(=O)(=O)Nc5ccccn5)cc4)cc23)cc1 [Ex 935, 4-((5-((4-cyanophenyl)ethynyl)-2,6-naphthyridin-3-yl)amino)-N-(pyridin-2-yl)benzenesulfonamide]

Continued, compound first:

SMILES: N#Cc1ccc(C#Cc2nccc3cnc(Nc4cnc(O)c(N5CCN(CCO)CC5)c4)cc23)cc1 [Ex 920, 4-((7-((6-hydroxy-5-(4-(2-hydroxyethyl)piperazin-1-yl)pyridin-3-yl)amino)-2,6-naphthyridin-1-yl)ethynyl)benzonitrile]
IC50 (CDK6/CCND1; [1]): > 250 nM
IC50 (CDK2/CCNE1; [2]): 25 to 250 nM
IC50 (CDK4/CCND3; [3]): > 250 nM
IC50 (CDK1/CCNB1; [4]): > 250 nM

SMILES: Cc1c(-c2nccc3cnc(Nc4ccc(S(=O)(=O)N5CCCCC5)cc4)cc23)ccc2c1cnn2CC(C)(C)O [Ex 923, 2-methyl-1-(4-methyl-5-(7-((4-(piperidin-1-ylsulfonyl)phenyl)amino)-2,6-naphthyridin-1-yl)-1H-indazol-1-yl)propan-2-ol]
IC50 (CDK6/CCND1; [1]): > 250 nM
IC50 (CDK2/CCNE1; [2]): 25 to 250 nM
IC50 (CDK4/CCND3; [3]): > 250 nM
IC50 (CDK1/CCNB1; [4]): > 250 nM

SMILES: Cc1c(-c2nccc3cnc(Nc4ccc(S(=O)(=O)Nc5ccccn5)cc4)cc23)ccc2c1cnn2CC(C)(C)O [Ex 924, 4-((5-(1-(2-hydroxy-2-methylpropyl)-4-methyl-1H-indazol-5-yl)-2,6-naphthyridin-3-yl)amino)-N-(pyridin-2-yl)benzenesulfonamide]
IC50 (CDK6/CCND1; [5]): 25 to 250 nM
IC50 (CDK2/CCNE1; [6]): < 25 nM
IC50 (CDK4/CCND3; [7]): 25 to 250 nM
IC50 (CDK1/CCNB1; [4]): > 250 nM

SMILES: Cc1cc(C)nc(NS(=O)(=O)c2ccc(Nc3cc4c(-c5ccc6c(cnn6CC(C)(C)O)c5C)nccc4cn3)cc2)n1 [Ex 926, N-(4,6-dimethylpyrimidin-2-yl)-4-((5-(1-(2-hydroxy-2-methylpropyl)-4-methyl-1H-indazol-5-yl)-2,6-naphthyridin-3-yl)amino)benzenesulfonamide]
IC50 (CDK6/CCND1; [5]): 25 to 250 nM
IC50 (CDK2/CCNE1; [6]): < 25 nM
IC50 (CDK4/CCND3; [3]): > 250 nM
IC50 (CDK1/CCNB1; [8]): 25 to 250 nM

SMILES: Cc1c(-c2nccc3cnc(Nc4ccc(-n5ccnc5)cc4)cc23)ccc2c1cnn2CC(C)(C)O [Ex 928, 1-(5-(7-((4-(1H-imidazol-1-yl)phenyl)amino)-2,6-naphthyridin-1-yl)-4-methyl-1H-indazol-1-yl)-2-methylpropan-2-ol]
IC50 (CDK6/CCND1; [5]): 25 to 250 nM
IC50 (CDK2/CCNE1; [6]): < 25 nM
IC50 (CDK4/CCND3; [7]): 25 to 250 nM
IC50 (CDK1/CCNB1; [8]): 25 to 250 nM

SMILES: Cc1c(-c2nccc3cnc(Nc4ccc(S(C)(=O)=O)c(N5CCN(C)CC5)c4)cc23)ccc2c1cnn2CC(C)(C)O [Ex 931, 2-methyl-1-(4-methyl-5-(7-((3-(4-methylpiperazin-1-yl)-4-(methylsulfonyl)phenyl)amino)-2,6-naphthyridin-1-yl)-1H-indazol-1-yl)propan-2-ol]
IC50 (CDK6/CCND1; [1]): > 250 nM
IC50 (CDK2/CCNE1; [2]): 25 to 250 nM
IC50 (CDK4/CCND3; [3]): > 250 nM
IC50 (CDK1/CCNB1; [4]): > 250 nM

SMILES: Cc1c(-c2nccc3cnc(Nc4ccc(=O)n(C)n4)cc23)ccc2c1cnn2CC(C)(C)O [Ex 932, 6-((5-(1-(2-hydroxy-2-methylpropyl)-4-methyl-1H-indazol-5-yl)-2,6-naphthyridin-3-yl)amino)-2-methylpyridazin-3(2H)-one]
IC50 (CDK6/CCND1; [1]): > 250 nM
IC50 (CDK2/CCNE1; [6]): < 25 nM
IC50 (CDK4/CCND3; [7]): 25 to 250 nM
IC50 (CDK1/CCNB1; [4]): > 250 nM

SMILES: CN1CCN(S(=O)(=O)c2ccc(Nc3cc4c(C#Cc5ccc(C#N)cc5)nccc4cn3)cc2)CC1 [Ex 933, 4-((7-((4-((4-methylpiperazin-1-yl)sulfonyl)phenyl)amino)-2,6-naphthyridin-1-yl)ethynyl)benzonitrile]
IC50 (CDK6/CCND1; [1]): > 250 nM
IC50 (CDK2/CCNE1; >250 nM, read-out: CDK2/CCNE IC50, >250 nM): > 250 nM
IC50 (CDK4/CCND3; [3]): > 250 nM
IC50 (CDK1/CCNB1; [4]): > 250 nM

SMILES: N#Cc1ccc(C#Cc2nccc3cnc(Nc4ccc(S(=O)(=O)N5CCOCC5)cc4)cc23)cc1 [Ex 934, 4-((7-((4-(morpholinosulfonyl)phenyl)amino)-2,6-naphthyridin-1-yl)ethynyl)benzonitrile]
IC50 (CDK6/CCND1; [1]): > 250 nM
IC50 (CDK2/CCNE1; [2]): 25 to 250 nM
IC50 (CDK4/CCND3; [3]): > 250 nM
IC50 (CDK1/CCNB1; [4]): > 250 nM

SMILES: Cc1cc(C)nc(NS(=O)(=O)c2ccc(Nc3cc4c(C#Cc5ccc(C#N)cc5)nccc4cn3)cc2)n1 [Ex 936, 4-((5-((4-cyanophenyl)ethynyl)-2,6-naphthyridin-3-yl)amino)-N-(4,6-dimethylpyrimidin-2-yl)benzenesulfonamide]
IC50 (CDK6/CCND1; [1]): > 250 nM
IC50 (CDK2/CCNE1; [6]): < 25 nM
IC50 (CDK4/CCND3; [3]): > 250 nM
IC50 (CDK1/CCNB1; [4]): > 250 nM

SMILES: Cc1c(-c2nccc3cnc(Nc4ccc(C(=O)Nc5ccccc5)cc4)cc23)ccc2c1cnn2CC(C)(C)O [Ex 937, 4-((5-(1-(2-hydroxy-2-methylpropyl)-4-methyl-1H-indazol-5-yl)-2,6-naphthyridin-3-yl)amino)-N-phenylbenzamide]
IC50 (CDK6/CCND1; [1]): > 250 nM
IC50 (CDK2/CCNE1; [6]): < 25 nM
IC50 (CDK4/CCND3; [3]): > 250 nM
IC50 (CDK1/CCNB1; [4]): > 250 nM

SMILES: Cc1c(-c2nccc3cnc(Nc4ccc(NS(C)(=O)=O)cc4)cc23)ccc2c1cnn2CC(C)(C)O [Ex 938, N-(4-((5-(1-(2-hydroxy-2-methylpropyl)-4-methyl-1H-indazol-5-yl)-2,6-naphthyridin-3-yl)amino)phenyl)methanesulfonamide]
IC50 (CDK6/CCND1; [5]): 25 to 250 nM
IC50 (CDK2/CCNE1; [6]): < 25 nM
IC50 (CDK4/CCND3; [7]): 25 to 250 nM
IC50 (CDK1/CCNB1; [8]): 25 to 250 nM

SMILES: Cc1c(-c2nccc3cnc(Nc4ccnc(OCc5ccccc5)c4)cc23)ccc2c1cnn2CC(C)(C)O [Ex 939, 1-(5-(7-((2-(benzyloxy)pyridin-4-yl)amino)-2,6-naphthyridin-1-yl)-4-methyl-1H-indazol-1-yl)-2-methylpropan-2-ol]
IC50 (CDK6/CCND1; [1]): > 250 nM
IC50 (CDK2/CCNE1; [2]): 25 to 250 nM
IC50 (CDK4/CCND3; [3]): > 250 nM
IC50 (CDK1/CCNB1; [4]): > 250 nM

SMILES: CS(=O)(=O)Nc1ccc(Nc2cc3c(C#Cc4ccc(C#N)cc4)nccc3cn2)cc1 [Ex 940, N-(4-((5-((4-cyanophenyl)ethynyl)-2,6-naphthyridin-3-yl)amino)phenyl)methanesulfonamide]
IC50 (CDK6/CCND1; [1]): > 250 nM
IC50 (CDK2/CCNE1; [2]): 25 to 250 nM
IC50 (CDK4/CCND3; [3]): > 250 nM
IC50 (CDK1/CCNB1; [4]): > 250 nM
